This experiment has as its target human CBL-B (Homo sapiens, UniProt Q13191). The experiment is described as follows: TR-FRET ubiquitin ligase assay. Type of experiment: biochemical. For orientation: TR-FRET usually uses a lanthanide donor and a delayed reading to cut background.

Sequence of human CBL-B (Q13191 whole entry): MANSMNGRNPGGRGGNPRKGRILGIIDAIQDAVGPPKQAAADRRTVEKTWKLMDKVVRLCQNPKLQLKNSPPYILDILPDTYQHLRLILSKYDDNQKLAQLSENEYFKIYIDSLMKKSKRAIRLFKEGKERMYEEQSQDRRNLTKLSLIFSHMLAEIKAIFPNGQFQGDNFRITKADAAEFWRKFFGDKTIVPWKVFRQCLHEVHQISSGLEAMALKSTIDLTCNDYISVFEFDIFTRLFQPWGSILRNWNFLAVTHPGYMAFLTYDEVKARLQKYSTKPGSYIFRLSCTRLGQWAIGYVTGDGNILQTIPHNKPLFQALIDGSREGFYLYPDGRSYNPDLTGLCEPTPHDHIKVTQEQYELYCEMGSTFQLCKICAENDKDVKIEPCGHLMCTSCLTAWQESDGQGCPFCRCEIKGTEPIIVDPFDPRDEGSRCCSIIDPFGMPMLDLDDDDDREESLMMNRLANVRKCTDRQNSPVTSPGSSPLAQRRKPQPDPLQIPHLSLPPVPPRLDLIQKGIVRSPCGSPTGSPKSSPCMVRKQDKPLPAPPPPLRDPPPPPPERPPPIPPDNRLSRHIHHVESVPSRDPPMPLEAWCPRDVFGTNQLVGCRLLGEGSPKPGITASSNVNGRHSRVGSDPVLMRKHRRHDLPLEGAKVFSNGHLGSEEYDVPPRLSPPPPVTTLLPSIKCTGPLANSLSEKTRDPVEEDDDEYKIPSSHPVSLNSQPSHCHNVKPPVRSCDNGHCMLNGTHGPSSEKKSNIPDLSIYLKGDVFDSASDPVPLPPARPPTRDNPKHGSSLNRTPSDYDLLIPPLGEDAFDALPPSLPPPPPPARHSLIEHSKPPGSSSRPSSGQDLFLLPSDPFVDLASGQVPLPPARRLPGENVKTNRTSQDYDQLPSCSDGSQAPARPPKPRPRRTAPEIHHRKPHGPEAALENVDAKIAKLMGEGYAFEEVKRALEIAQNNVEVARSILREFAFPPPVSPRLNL

`CC(NC1CCCC1)c1ccc(F)c2cc(-c3cccc([C@]4(c5nncn5C)C[C@@H](C)C4)c3)c(=O)[nH]c12` (stereo partly drawn) [compound 12, Cmpd. 12]: the IC50 – broadly, the concentration that gives 50% inhibition – was 19.7 nM.
Regarding `C[C@H]1CCCN(Cc2cccc3cc(-c4cccc([C@]5(c6nncn6C)C[C@@H](C)C5)c4)c(=O)[nH]c23)C1` [compound 6, Cmpd. 6], the midpoint of inhibition, the IC50, lay at 16.8 nM.
As for `Cn1cnnc1[C@]1(c2cccc(-c3cc4ccccc4[nH]c3=O)c2)C[C@H](C)C1` [compound 4, Cmpd. 4], the figure is 1190 nM.
